In patent publication US20160084841A1, “Method for Predicting Clinical Effect of Immunotherapy” (INTERNATIONAL INSTITUTE OF CANCER IMMUNOLOGY, INC., priority 2013, published 2016):

Assays:
[1] = test system: malignant thymic carcinoma patient; assay: Anti-WT1332 / anti-WT1235 IgG antibody titer (ELISA) in serum of a patient given WT1235 peptide vaccine; type: in vivo, human
Excerpt: (§1) From one malignant glioblastoma patient given WT1332 peptide vaccine (SEQ ID NO: 6), a serum sample was obtained before the start of administration of the vaccine, at 4 weeks after the start of administration, and at 1 year and 2 months after the start of administration. From one malignant thymic carcinoma patient given WT1235 peptide vaccine (WT1-CTL peptide (modified mp235-243) (SEQ ID NO: 3)) alone, a serum sample was obtained as a negative control in the same way as above. Each serum sample was stored at −20° C. until assay.
The GST-WT1 frag1 protein solution (10 ng/μL) was added at 100 μL/well to a 96-well plate for ELISA. The plate was left overnight at 37° C. to immobilize the antigen thereon. After washing with 0.05% TBST, blocking was performed by shaking at room temperature for 2 hours using a blocking buffer (1% gelatin/0.05% TBST). Then, the serum diluted 100-fold with 0.05% TBST was added thereto at 100 μL/well and reacted overnight at 4° C. The plate was reacted with a peroxidase-labeled goat anti-human IgG antibody (Santa Cruz Biotechnology, Inc.) as a secondary antibody at room temperature for 2 hours. Then, a color was developed using a TMB kit (KPL, Kirkegaard & Perry Laboratories, Inc.). The reaction was terminated with 1 N HCl, and the absorbance at 450 nm was then measured using a microplate reader (CORONA […] MTP-32). […]

[2] = test system: recurrent malignant glioblastoma (GBM) patients; assay: Anti-WT1-235 peptide IgG antibody titer (ELISA) in serum of GBM patients given WT1235 peptide vaccine; type: in vivo, human; details: 2 months and 3 months after the start of administration compared with before, ELISA antigen WT1-235 peptide, FIG. 1
Procedure: 1-1 WT1 peptide immunotherapy was carried out in 72 GBM patients using WT1235 peptide (WT1-CTL peptide (modified mp235-243) (SEQ ID NO: 3)) as a WT1 peptide vaccine. […]
To a 96-well reaction plate supplied with Peptide Coating Kit (Takara Bio Inc.) having amino groups attached to the bottom surface of the wells, a solution (4 μg/mL) of the WT1-235 peptide dissolved in a reaction buffer supplied with Peptide Coating Kit was added at 50 μL/well. […] The reaction was terminated with 1 N HCl, and the absorbance at 450 nm was then measured using a microplate reader (CORONA […] MTP-310Lab).
The comparison between two groups was conducted using the Mann-Whitney test. […] The anti-WT1 antigen peptide antibody titer was measured using the serum negative for the anti-WT1 antigen peptide antibody (patient's serum before the start of WT1 peptide immunotherapy) and the average value plus twice the standard deviation=0.045. […]

[3] = test system: anti-WT1332 peptide IgG antibody; assay: ELISA using variant WT1 antigen peptide as immobilized antigen to assay anti-WT1332 peptide IgG antibody; type: binding, human; details: serum diluted 100-fold; titer increased in WT1332-immunized patient, not in unimmunized patient; FIG. 18
Procedure: A vector expressing WT1-frg3 (SEQ ID NO: 57) as a GST-tagged protein was constructed using a pGEX-5X-3 vector (GE Healthcare Japan Corp.). The prepared vector was transferred to competent cells DH5α by heat shock. The vector-transferred E. coli was cultured. At the point in time when the OD600 value became 0.4 to 0.6, isopropyl-β-D-thiogalactoside (IPTG) was added at a final concentration of 1 mM to the medium to induce protein expression. The cells were further cultured for 3 hours. The bacterial cells were collected by centrifugation and then lysed in an SDS sample buffer (0.125 M Tris-HCl, 0.1 M DTT, 4% SDS, 10% sucrose, and bromophenol blue, pH 6.8). This lysate was fractionated on the basis of molecular weights by SDS-PAGE using a disc-type electrophoresis apparatus NA-1800 (Nihon Eido Corp.). A portion of each fraction thus collected by SDS-PAGE was stained with CBB, and a fraction containing WT1 was recovered. The purified protein was dissolved in an immobilizing buffer for ELISA (10 mM NaCO3, 30 mM NaHCO3, and 0.02% NaN3, pH 9.6) and used as an antigen for ELISA.
The GST-WT1 frag1 protein solution (10 ng/μL) was added at 100 μL/well to a 96-well plate for ELISA. The plate was left overnight at 37° C. to immobilize the antigen thereon. After washing with 0.05% TBST, blocking was performed by shaking at room temperature for 2 hours using a blocking buffer (1% gelatin/0.05% TBST). Then, the serum diluted 100-fold with 0.05% TBST was added thereto at 100 μL/well and reacted overnight at 4° C. […] The reaction was terminated with 1 N HCl, and the absorbance at 450 nm was then measured using a microplate reader (CORONA […] MTP-32).
(§2) To a 96-well reaction plate supplied with Peptide Coating Kit (Takara Bio Inc.) having amino groups (—NH2) attached to the bottom surface of the wells, a solution (4 μg/mL) of the WT1 peptide dissolved in a reaction buffer supplied with Peptide Coating Kit was added at 50 μL/well. […] The reaction was terminated with 1 N HCl, and the absorbance at 450 nm was then measured using a microplate reader (CORONA […] MTP-310Lab).

[4] = test system: malignant glioblastoma patient; assay: Anti-WT1332 IgG antibody titer (ELISA) in serum of a patient given WT1332 peptide vaccine; type: in vivo, human; details: one patient immunized with WT1332 peptide, FIG. 18
Excerpt: as §1
[…] The plate was left overnight at 37° C. to immobilize the antigen thereon. After washing with 0.05% TBST, blocking was performed by shaking at room temperature for 2 hours using a blocking buffer (1% gelatin/0.05% TBST). […] The reaction was terminated with 1 N HCl, and the absorbance at 450 nm was then measured using a microplate reader (CORONA […] MTP-32).
as §2

[5] = test system: anti-WT1235 peptide IgG antibody; assay: ELISA using variant WT1 antigen peptide as immobilized antigen to assay anti-WT1235 peptide IgG antibody; type: binding, human; details: serum of thymic carcinoma patient given WT1235 peptide; increase in titer detected; FIG. 19
Procedure: WK235-243 (SEQ ID NO: 62) and WT237-243 (SEQ ID NO: 63) were synthesized by GL Biochem (Shanghai) Corporation Ltd. WT1-frg2 (SEQ ID NO: 61) was prepared in the same way as in the aforementioned WT1-frg3 (SEQ ID NO: 57).
The measurement of the antibody titer using WT1-frg2 (SEQ ID NO: 61) was performed in the same way as in the aforementioned WT1-frg3 (SEQ ID NO: 57). The measurement of the antibody titer using WK235-243 (SEQ ID NO: 62) or WT237-243 (SEQ ID NO: 63) was performed in the same way as in the aforementioned WT332-347 (SEQ ID NO: 58), etc.

CYTWNQMNL (Montanide ISA51 emulsion) [WT1235 peptide vaccine, emulsion with Montanide ISA51]
anti-WT1332 IgG antibody titer after immunization ([1]; negative control: one patient immunized with WT1235 peptide alone (unimmunized with WT1332 peptide), ELISA antigen WT1-frg3): not increased | anti-WT1235 IgG antibody titer ([1]; one thymic carcinoma patient, serum at 4 weeks and 7 months after start of administration, ELISA antigen WT1-frg2, FIG. 19): increase in anti-WT1235 IgG antibody titer was detected | anti-WT1-235 peptide IgG antibody titer after the start of administration [2]: significantly increased

YFKLSHLQM [WT334-342]
ability as ELISA antigen to measure anti-WT1332 IgG antibody level in patient's serum [3]: could measure an anti-WT1332 IgG antibody level in patient's serum

KRYFKLSHLQMHSRKH [WT1332 peptide]
anti-WT1332 IgG antibody titer after immunization ([4]; ELISA antigen WT1-frg3): increased | anti-WT1332 IgG antibody titer after immunization ([4]; ELISA antigen WT332-347, WT334-342 or WT332-338): increased

CMTWNQMNK [WK235-243]
ability as ELISA antigen to measure anti-WT1235 IgG antibody level in patient's serum [5]: could measure an anti-WT1235 IgG antibody level in patient's serum

KRYFKLS [WT332-338]
ability as ELISA antigen to measure anti-WT1332 IgG antibody level in patient's serum [3]: could measure an anti-WT1332 IgG antibody level in patient's serum

TWNQMNL [WT237-243]
ability as ELISA antigen to measure anti-WT1235 IgG antibody level in patient's serum [5]: could measure an anti-WT1235 IgG antibody level in patient's serum

KRYFKLSHLQMHSRKH [WT332-347]
ability as ELISA antigen to measure anti-WT1332 IgG antibody level in patient's serum [3]: could measure an anti-WT1332 IgG antibody level in patient's serum
